From ChEMBL document CHEMBL1671851, “Population pharmacokinetics of rifampin in pulmonary tuberculosis patients, including a semimechanistic model to describe variable absorption” (Antimicrob Agents Chemother, 2008)

Experiments:
[1] = Apparent oral clearance in pulmonary tuberculosis patient in first order model; format: ADME, organism-based; conditions: human, in vivo
Homo sapiens [2] = species: Homo sapiens; assay: Absorption rate constant in pulmonary tuberculosis patient in first order model; format: ADME, organism-based; conditions: in vivo
Homo sapiens [3] = assay: AUC (0 to 12 hrs) in kenyan pulmonary tuberculosis patient coinjected with HIV with body weight >45 kg at 600 mg/day, po; format: ADME, organism-based, Plasma; set-up: time < 12 hr, dose 600 mg/day, route oral; conditions: in vivo
Homo sapiens [4] = assay: AUC (0 to 12 hrs) in kenyan pulmonary tuberculosis patient with body weight <=45 kg at 450 mg/day, po; format: ADME, organism-based, Plasma; set-up: time < 12 hr, dose 450 mg/day, route oral; conditions: in vivo
Homo sapiens [5] = assay: AUC (0 to 24 hrs) in south african pulmonary tuberculosis patient with body weight >50 kg at 600 mg/day, po; format: ADME, organism-based, Plasma; set-up: time < 24 hr, dose 600 mg/day, route oral; conditions: in vivo
[6] = Apparent oral clearance in pulmonary tuberculosis patient in transit compartment model; format: ADME, organism-based; conditions: human, in vivo
[7] = Apparent oral clearance in pulmonary tuberculosis patient in Sequential 0 order and first order model; format: ADME, organism-based; conditions: human, in vivo
[8] = Apparent volume of distribution in pulmonary tuberculosis patient in transit compartment model; format: ADME, organism-based; conditions: human, in vivo; read-out: Vz
[9] = Apparent volume of distribution in pulmonary tuberculosis patient in first order model; format: ADME, organism-based; conditions: human, in vivo; read-out: Vz
Homo sapiens [10] = assay: AUC (0 to 12 hrs) in kenyan pulmonary tuberculosis patient coinjected with HIV with body weight <=45 kg at 450 mg/day, po; format: ADME, organism-based, Plasma; set-up: time < 12 hr, dose 450 mg/day, route oral; conditions: in vivo
Homo sapiens [11] = assay: AUC (0 to 24 hrs) in indonesian pulmonary tuberculosis patient at 600 mg/day, po; format: ADME, organism-based, Plasma; set-up: time < 24 hr, dose 600 mg/day, route oral; conditions: in vivo
Homo sapiens [12] = assay: AUC (0 to 10 hrs) in north american pulmonary tuberculosis patient coinjected with HIV with body weight <=50 kg at 450 mg/day, po; format: ADME, organism-based, Plasma; set-up: time < 10 hr, dose 450 mg/day, route oral; conditions: in vivo
[13] = Apparent volume of distribution in pulmonary tuberculosis patient in Sequential 0 order and first order model; format: ADME, organism-based; conditions: human, in vivo; read-out: Vz
Homo sapiens [14] = assay: AUC (0 to 12 hrs) in german pulmonary tuberculosis patient at 600 mg/day, po; format: ADME, organism-based, Plasma; set-up: dose 600 mg/day, time < 12 hr, route oral; conditions: in vivo
Homo sapiens [15] = assay: AUC (0 to infinity) in indian pulmonary tuberculosis patient at 450 mg/day, po; format: ADME, organism-based, Plasma; set-up: dose 450 mg/day, route oral, time infinity; conditions: in vivo
Homo sapiens [16] = assay: AUC (0 to 12 hrs) in kenyan pulmonary tuberculosis patient with body weight >45 kg at 600 mg/day, po; format: ADME, organism-based, Plasma; set-up: dose 600 mg/day, time < 12 hr, route oral; conditions: in vivo
Homo sapiens [17] = assay: AUC (0 to 24 hrs) in south african pulmonary tuberculosis patient with body weight <=50 kg at 450 mg/day, po; format: ADME, organism-based, Plasma; set-up: time < 24 hr, dose 450 mg/day, route oral; conditions: in vivo
Homo sapiens [18] = species: Homo sapiens; assay: Absorption rate constant in pulmonary tuberculosis patient in Sequential 0 order and first order model; format: ADME, organism-based; conditions: in vivo
Homo sapiens [19] = assay: AUC (0 to infinity) in indian pulmonary tuberculosis patient coinjected with HIV at 450 mg/day, po; format: ADME, organism-based, Plasma; set-up: dose 450 mg/day, time infinity, route oral; conditions: in vivo
Homo sapiens [20] = assay: AUC (0 to 10 hrs) in north american pulmonary tuberculosis patient coinjected with HIV with body weight >50 kg at 600 mg/day, po; format: ADME, organism-based, Plasma; set-up: time < 10 hr, dose 600 mg/day, route oral; conditions: in vivo
Homo sapiens [21] = assay: AUC (0 to 24 hrs) in indonesian pulmonary tuberculosis patient at 450 mg/day, po; format: ADME, organism-based, Plasma; set-up: dose 450 mg/day, time < 24 hr, route oral; conditions: in vivo
Homo sapiens [22] = species: Homo sapiens; assay: Absorption rate constant in pulmonary tuberculosis patient in first order and lag time model; format: ADME, organism-based; conditions: in vivo
[23] = Apparent oral clearance in pulmonary tuberculosis patient in first order and lag time model; format: ADME, organism-based; conditions: human, in vivo
[24] = Apparent volume of distribution in pulmonary tuberculosis patient in first order and lag time model; format: ADME, organism-based; conditions: human, in vivo; read-out: Vz
Homo sapiens [25] = species: Homo sapiens; assay: Absorption rate constant in pulmonary tuberculosis patient in transit compartment model; format: ADME, organism-based; conditions: in vivo
Homo sapiens [26] = species: Homo sapiens; assay: Mean transient time in pulmonary tuberculosis patient in transit compartment model; format: ADME, organism-based; conditions: in vivo

Which CL/F [1] does the source give for `CO[C@H]1/C=C/O[C@@]2(C)Oc3c(C)c(O)c4c(O)c(c(/C=N/N5CCN(C)CC5)c(O)c4c3C2=O)NC(=O)/C(C)=C\C=C\[C@H](C)[C@H](O)[C@@H](C)[C@@H](O)[C@@H](C)[C@H](OC(C)=O)[C@@H]1C` [RIFAMPIN] here?
The CL/F was 323 mL/min.

What about the Ka (Homo sapiens [2]) of the same compound?
The Ka was 1.61 L/h.

What about the AUC (Homo sapiens [3]) of the same compound?
The AUC was 19600 ng·h/mL.

What about the AUC (Homo sapiens [4]) of the same compound?
The AUC was 23100 ng·h/mL.

And the AUC (Homo sapiens [5])?
Its AUC is 30700 ng·h/mL.

And the CL/F [6]?
Its CL/F is 320 mL/min.

What about the CL/F [7] of the same compound?
Its CL/F is 320 mL/min.

What about the Vd [8] of the same compound?
Its Vd is 53.2 L.

And the Vd [9]?
Its Vd is 52.8 L.

And the AUC (Homo sapiens [10])?
Its AUC is 19600 ng·h/mL.

What about the AUC (Homo sapiens [11]) of the same compound?
Its AUC is 79700 ng·h/mL.

What about the AUC (Homo sapiens [12]) of the same compound?
The AUC was 30100 ng·h/mL.

And the Vd [13]?
Its Vd is 51.5 L.

And the AUC (Homo sapiens [14])?
Its AUC is 60300 ng·h/mL.

And the AUC (Homo sapiens [15])?
The AUC was 44600 ng·h/mL.

What about the AUC (Homo sapiens [16]) of the same compound?
The AUC was 23100 ng·h/mL.

And the AUC (Homo sapiens [17])?
Its AUC is 30700 ng·h/mL.

And the Ka (Homo sapiens [18])?
The Ka was 1.23 L/h.

What about the AUC (Homo sapiens [19]) of the same compound?
The AUC was 28200 ng·h/mL.

And the AUC (Homo sapiens [20])?
Its AUC is 30100 ng·h/mL.

What about the AUC (Homo sapiens [21]) of the same compound?
The AUC was 48500 ng·h/mL.

And the Ka (Homo sapiens [22])?
Its Ka is 1.64 L/h.

What about the CL/F [23] of the same compound?
Its CL/F is 337 mL/min.

What about the Vd [24] of the same compound?
Its Vd is 53.4 L.

And the Ka (Homo sapiens [25])?
The Ka was 1.15 L/h.

And the MTT (Homo sapiens [26])?
The MTT was 0.424 h.
